In article PMC8677648, “A robotic pill for oral delivery of biotherapeutics: safety, tolerability, and performance in healthy subjects” (Drug Delivery and Translational Research, 2021):

Columns and labels:
[1] = Study 1: pharmacokinetics of octreotide delivered via RP or IV injection (plasma LC/MS/MS); settings: human, in vivo, 100 ug
Description: This was a single-center, open-label study.
Fluoroscopic imaging was performed with Siemens AXIOM Artis dMP using standard abdominal protocol.
Serial blood samples for PK analysis were collected immediately before the injection and at 5, 10, 15, 20, 25, 30, 40, 50, 60, 90, 120, 150, 180, and 240 min after dosing.
Blood samples were collected into potassium-EDTA treated lavender top tubes, plasma was separated via centrifugation and aliquots stored at −80℃ until analyzed. […] The analysis was performed using an API 5000 mass spectrometer from Applied Biosystems.
MS Excel (2016) and GraphPad (Version 8.4.3) were used for data analysis. Categorical data are expressed as counts and percentages, and continuous data as mean ± standard deviation (SD) or standard error (SE), as indicated. PK parameters were calculated using noncompartmental analysis (NCA) implemented within a validated installation of Phoenix® WinNonlin. The Cmax (peak plasma concentration) and Tmax (time to reach Cmax) were obtained graphically from the concentration vs. time profiles. Unpaired t tests were used to determine differences between groups with a p value of 0.05 or less deemed as significant.

[2] = in vivo, cited from earlier work
Description: For example, subjects need to take oral semaglutide at least 30 min before the first food, beverage, or other or ...

Compound | Cmax [1] [ng/mL] | Tmax [1] [min] | bioavailability ([2]; po) | half-life [2] [h]
C[C@@H](O)[C@@H]1NC(=O)[C@H](CCCCN)NC(=O)[C@@H](Cc2c[nH]c3ccccc23)NC(=O)[C@H](Cc2ccccc2)NC(=O)[C@@H](NC(=O)[C@H](N)Cc2ccccc2)CSSC[C@@H](C(=O)N[C@H](CO)[C@@H](C)O)NC1=O [octreotide] | 11.1 | 5 | – | –
semaglutide | – | – | ~ 1% | 170
